Test results reported in ChEMBL document CHEMBL5385851, “Natural quinazolinones: From a treasure house to promising anticancer leads” (Eur J Med Chem, 2023).
Values after ≈ are worked out from the molar mass of the structure shown.

Assays:
A549 [1] = test: Cytotoxicity against human A549 cells assessed as reduction in cell viability incubated for 72 hrs by MTT assay; type: functional, cell-based; conditions: A549, 72 h
MCF7 [2] = test: Cytotoxicity against human MCF7 assessed as reduction in cell viability incubated for 24 hrs by MTT assay; type: functional, cell-based; conditions: MCF7, 24 h
SK-MEL-28 [3] = test: Cytotoxicity against human SK-MEL-28 cells assessed as reduction in cell growth; type: functional, cell-based
A549 [4] = test: Cytotoxicity against human A549 cells assessed as inhibition of cell growth measured after 72 hrs by MTT assay; type: functional, cell-based; conditions: A549, 72 h
[5] = Antiproliferative activity against human U373 cells assessed as reduction in cell viability; type: functional, cell-based; conditions: U373 MG
Hs 683 [6] = test: Cytotoxicity against human Hs 683 cells assessed as reduction in cell viability by MTT assay; type: functional, cell-based
MGC-803 [7] = test: Antiproliferative activity against human MGC-803 cells assessed as reduction in cell viability by MTT assay; type: functional, cell-based
MGC-803 [8] = test: Cytotoxicity against human MGC-803 assessed as inhibition of cell growth by MTT assay; type: functional, cell-based
SF-268 = test: Antiproliferative activity against human SF-268 cells assessed as reduction in cell growth incubated for 48 hrs by SRB assay; type: functional, cell-based; conditions: SF-268, 48 h
NCI-H460 = test: Cytotoxicity against human NCI-H460 cells assessed reduction in cell viability; type: functional, cell-based
MCF7 [9] = test: Cytotoxicity against human MCF7 cells assessed as reduction in cell growth; type: functional, cell-based
HepG2 [10] = test: Cytotoxicity against human HepG2 cells assessed as cell growth inhibition measured after 48 hrs by MTT assay; type: functional, cell-based; conditions: HepG2, 48 h
A549 [11] = test: Antiproliferative activity against human A549 cells assessed as cell growth inhibition measured after 72 hrs by MTT assay; type: functional, cell-based; conditions: A549, 72 h
HCT-116 [12] = test: Cytotoxicity against human HCT-116 cells assessed as reduction in cell growth incubated for 48 hrs by MTT assay; type: functional, cell-based; conditions: HCT-116, 48 h
A-375 [13] = test: Cytotoxicity against human A-375 cells assessed as reduction in cell growth incubated for 48 hrs by MTT assay; type: functional, cell-based; conditions: A-375, 48 h
A-375 [14] = test: Antiproliferative activity against human A-375 cells assessed as inhibition of cell growth incubated for 48 hrs by MTT based colorimetric method; type: functional; conditions: A-375, 48 h
HCT-116 [15] = test: Antiproliferative activity against human HCT-116 cells assessed as inhibition of cell growth incubated for 48 hrs by MTT based colorimetric assay; type: functional; conditions: HCT-116, 48 h
HepG2 [16] = test: Antiproliferative activity against human HepG2 cells assessed as inhibition of cell growth incubated for 48 hrs by MTT based colorimetric assay; type: functional; conditions: HepG2, 48 h
A549 [17] = test: Antiproliferative activity against human A549 cells assessed as cell growth inhibition incubated for 48 hrs by MTT assay; type: functional, cell-based; conditions: A549, 48 h
K562 = test: Cytotoxicity against human K562 cells assessed as cell growth inhibition after 48 hrs by MTT assay; type: functional, cell-based; conditions: K562, 48 h
A549 [18] = test: Cytotoxicity against human A549 cells assessed as reduction in cell growth incubated for 5 days by MTT assay; type: functional, cell-based; conditions: A549, 120 h
[19] = Cytotoxicity against human U373 cells assessed as reduction in cell viability after 24 hrs by MTT assay; type: functional, cell-based; conditions: U373 MG
HepG2 [20] = test: Cytotoxicity against human HepG2 cells assessed as reduction in cell viability incubated for 24 hrs by MTT based colorimetric assay; type: functional; conditions: HepG2, 24 h
MCF7 [21] = test: Cytotoxicity against human MCF7 cells assessed as reduction in cell viability by SRB assay; type: functional, cell-based
HCT-116 [22] = test: Cytotoxicity against human HCT-116 cells assessed as cell growth inhibition incubated for 24 hrs by MTT based colorimetric assay; type: functional; conditions: HCT-116, 24 h
Hs 683 [23] = test: Cytotoxicity against human Hs 683 cells; type: functional, cell-based
A549 [24] = test: Cytotoxicity against human A549 cells assessed as reduction in cell growth; type: functional, cell-based
SK-MEL-28 [25] = test: Cytotoxicity against human SK-MEL-28 cells assessed as reduction in cell viability measured after 24 hrs by MTT assay; type: functional, cell-based; conditions: SK-MEL-28, 24 h
HT-29 = test: Antiproliferative activity against human HT-29 cells assessed as reduction in cell viability after 72 hrs by MTT assay; type: functional, cell-based; conditions: HT-29, 72 h
P388 = test: Antiproliferative activity against mouse P388 cells assessed as reduction in cell proliferation incubated for 48 hrs by MTT assay; type: functional, cell-based; conditions: P388, 48 h

O=c1c2ccccc2nc2n1C(O)c1cc3ccccc3nc1-2 (stereo not given)
IC50 (A549 [1]): 9 µg/mL (≈ 29.9 µM)

O=C1N[C@H]2c3[nH]c4ccccc4c3C[C@@H]1n1c2nc2ccccc2c1=O
IC50 (MCF7 [2]): 43 µM | IC50 (SK-MEL-28 [3]): 73 µM | IC50 (A549 [4]): 39 µM | IC50 [5]: 50 µM | IC50 (Hs 683 [6]): 50 µM

O=c1c2ccccc2nc2n1CC[C@@H]2O
IC50 (MGC-803 [7]): 94.5 µM

O=c1c2ccccc2nc2n1CC[C@@H]2O[C@@H]1O[C@H](CO)[C@@H](O)[C@H](O)[C@H]1O
IC50 (MGC-803 [8]): 84.1 µM

CC(=O)C[C@]1(O)c2ccccc2-n2c1nc1ccccc1c2=O
IC50 (SF-268): 43.9 µM | IC50 (NCI-H460): 27 µM | IC50 (MCF7 [9]): 33.8 µM

CC(C)[C@@H]1NC(=O)[C@@H](C[C@]2(O)c3ccccc3N3C(=O)[C@H](C)N[C@H]32)n2c1nc1ccccc1c2=O
IC50 (HepG2 [10]): 53 µM | IC50 (A549 [11]): 0.54 µM | IC50 (HCT-116 [12]): 123 µM | IC50 (A-375 [13]): 169 µM

CC(=O)O[C@H](c1nc2ccccc2c(=O)n1[C@@H]1C[C@@]2(OC1=O)c1ccccc1N1C(=O)C(C)(C)N(O)[C@H]12)C(C)C
IC50 (A-375 [14]): 108 µM | IC50 (HCT-116 [15]): 114 µM | IC50 (HepG2 [16]): 58 µM | IC50 (A549 [17]): 0.54 µM

C[C@@]12NC(=O)[C@@H](CC13c1ccccc1N1C(=O)CN[C@@H]13)n1c2nc2ccccc2c1=O (stereo not given in full)
IC50 (K562): 50 µM

CC(C)[C@H]1NC(=O)[C@@H](C[C@]2(O)c3ccccc3N3C(=O)[C@H](C)N[C@H]32)n2c1nc1ccccc1c2=O
IC50 (A549 [18]): > 100 µM | IC50 [19]: > 100 µM | IC50 (HepG2 [20]): 115 µM | IC50 (MCF7 [21]): > 100 µM | IC50 (HCT-116 [22]): 277 µM | IC50 (Hs 683 [23]): > 100 µM | IC50 (A549 [24]): 0.54 µM | IC50 (SK-MEL-28 [25]): > 100 µM

O=c1c2cccc(O)c2nc2n1CCc1c-2[nH]c2ccccc12
IC50 (HT-29): 24.7 µM | IC50 (P388): 12.4 µM
